These results are taken from patent publication US9895390B2, “Methods and assays for combination treatment of cancer” (CHILDREN'S MEDICAL CENTER CORPORATION, priority 2012, dated 2018).

The test system of experiment [1] is EZH2 and H3K27me3. In words: Western Blot for EZH2 and H3K27me3 on whole cell extracts. In kind it is cell-based, human. The settings on record: 10 μM GSK126, 7 days in culture. On the procedure: For Western blotting, 25 μg of protein extract per sample was denatured with heat and reducing agents, separated on a 4-12% acrylimide gel and transferred to nitrocellulose. Antibodies used for Western blotting were: EZH2 (Cell Signalling), β-actin (AbCAM) and H3K27me3 (Upstate).
Whole cell extracts were made in RIPA buffer (0.5% Deoxycholate, 1% IGEPAL-CA630, 0.1% sodium dodecyl sulfate, 150 mM NaCL, 50 mM Tris-8.1), lysates were cleared by centrifugation, and protein concentrations were quantified with the Pierce BCA Protein Assay Kit (Thermo). For Western blotting, 25 μg of protein extract per sample was denatured with heat and reducing agents, separated on a 4-12% acrylimide gel (BioRad) and transferred to nitrocellulose (GE Healthcare). Antibodies used for Western blotting were: EZH2 (clone D2C9; Cell Signaling; 1:200), Histone H3 (polyclonal; AbCAM ab1791; 1:2000) and H3K27me3 (polyclonal; Millipore 07-449; 1:1000) all incubated overnight at 4° C. Secondary antibody, anti-rabbit-HRP (Santa Cruz sc-2313; 1:5,000), was incubated for 1 hour at room temperature. After washing, chemi-luminescence was visualized with Western Lightning Plus-ECL (PerkinElmer) and exposure onto KODAK BioMax XAR™ film.
(In general: A western blot detects proteins with antibodies after separation by electrophoresis.)

Experiment [2] concerns human NSCLC lines. Kind of experiment: Cytotox assays: chemotherapy dose response curves with or without EZH2 inhibitor, 4 days. In kind it is cell-based. The settings on record: for IC50: various NSCLC cell lines, 4 days, read-out: etoposide IC50. The method, then: Cell lines were dissociated, counted and plated at 5000 cells per well in flat bottom opaque tissue culture treated 96 well plates (CytoOne). Edge wells were filled with PBS. The following day, 2× drug diluted in media was added to each well such that the well then contained 100 ul media with 1× drug concentration. After 4 days, Cell Titer Glo™ (Promega) was added and luminescence was read on a BioTec plate reader to determine relative cell number in each well. Data were averaged for triplicate or quadruplicate technical replicates, normalized to the untreated wells and input into GraphPad Prism software to extrapolate IC50.
Cell lines were dissociated, counted and plated at 5000 cells per well in flat bottom opaque tissue culture treated 96 well plates (CytoOne). Edge wells were filled with PBS. The following day, 2× drug diluted in media was added to each well such that the well then contained 100 ul media with 1× drug concentration at the following doses: etoposide; 0, 0.1, 1, 3, 5, 7, 10, 50, 100, 500 μM, cisplatin; 0, 0.1, 1, 5, 10, 30, 70, 100, 500 μM, or doxorubicin; 0, 0.01, 0.1, 0.5, 1, 3, 5, 7, 10, 50 μM. […] Data were averaged for triplicate or quadruplicate technical replicates and normalized to the untreated wells. Results from three or four independent biological replicate experiments were input into […] PRISM™ software to extrapolate IC50 and s.e.m. of IC50 for a given cell line.

For experiment [3], the system named is BRG1 mutant and BRG1 wild-type cell lines. Kind of experiment: Gefitinib dose response curves, 4 days. The note with it: data not shown. In kind it is cell-based, human.

Molecules are shown by their SMILES. Where two headings read alike, the source gives them in different places.

As to `CC[C@H](C)n1cc(C)c2c(C(=O)NCc3c(C)cc(C)[nH]c3=O)cc(-c3ccc(N4CCNCC4)nc3)cc21` [GSK126], in experiment [1], the EZH2 levels entry is given as “remained unchanged” and the H3K27me3 levels result is “marked decrease”. The “etoposide dose response: classes of GSK126 treated cell lines” value in experiment [2] (10 μM GSK126) is “same TopoII inhibitor-sensitized and -protected classes”.

Regarding `N.N.[Cl][Pt][Cl]` [cisplatin], the “cisplatin IC30” value in experiment [2] (NSCLC cell lines, approximate) is about 5 µM.

In the case of `COc1cc([C@@H]2c3cc4c(cc3[C@@H](O[C@@H]3O[C@@H]5CO[C@@H](C)O[C@H]5[C@H](O)[C@H]3O)[C@H]3COC(=O)[C@H]23)OCO4)cc(OC)c1O` [etoposide], the IC50 (as a rule, the concentration that inhibits the measured activity by half) in experiment [2] (Homo sapiens, 96 h, approximate) is about 10 µM; in experiment [2] (approximate), about 5 µM.

In the case of `COc1cc2ncnc(Nc3ccc(F)c(Cl)c3)c2cc1OCCCN1CCOCC1` [gefitinib], in experiment [3], the “gefitinib sensitivity of BRG1 mutant vs BRG1 wild-type cell lines” value is on record as “slightly more sensitive”.
